# From US12479847B2 (DANA-FARBER CANCER INSTITUTE, INC., priority 2019, dated 2025)
# Target: human LRRK2 kinase (Homo sapiens, UniProt Q5S007)
# Details: LRRK2, ADP-Glo, ATP 10 μM, 60 minutes at 25° C.
# Protocol: Assay kits from Promega™ Corporation were used according to instructions and adapted as outlined herein. […] The kinase reaction was performed with kinase reaction buffer (40 mM Tris base pH 7.4, 20 mM MgCl2, 0.5 mM dithiothreitol), 0.1 mg/ml bovine serum albumin, distilled H2O). […] In brief, the kinase reactions were started by addition of ATP to the kinase reaction mixture. The resulting mixture was incubated for 60 minutes at 25° C., and then stopped by adding 5 μl of ADP-Glo™ reagent. After incubation at room temperature in the dark for 40 minutes, 10 μl of kinase detection reagent was added per well, and the mixture was incubated for 10 minutes. […] Positive and negative controls were performed in 0.5% DMSO in the presence and absence of LRRK2 kinases. Curve fitting and data presentations were performed using GraphPad Prism version 5.0 (GraphPad Software, Inc.).
# human LRRK2 kinase, sequence (Q5S007 whole entry): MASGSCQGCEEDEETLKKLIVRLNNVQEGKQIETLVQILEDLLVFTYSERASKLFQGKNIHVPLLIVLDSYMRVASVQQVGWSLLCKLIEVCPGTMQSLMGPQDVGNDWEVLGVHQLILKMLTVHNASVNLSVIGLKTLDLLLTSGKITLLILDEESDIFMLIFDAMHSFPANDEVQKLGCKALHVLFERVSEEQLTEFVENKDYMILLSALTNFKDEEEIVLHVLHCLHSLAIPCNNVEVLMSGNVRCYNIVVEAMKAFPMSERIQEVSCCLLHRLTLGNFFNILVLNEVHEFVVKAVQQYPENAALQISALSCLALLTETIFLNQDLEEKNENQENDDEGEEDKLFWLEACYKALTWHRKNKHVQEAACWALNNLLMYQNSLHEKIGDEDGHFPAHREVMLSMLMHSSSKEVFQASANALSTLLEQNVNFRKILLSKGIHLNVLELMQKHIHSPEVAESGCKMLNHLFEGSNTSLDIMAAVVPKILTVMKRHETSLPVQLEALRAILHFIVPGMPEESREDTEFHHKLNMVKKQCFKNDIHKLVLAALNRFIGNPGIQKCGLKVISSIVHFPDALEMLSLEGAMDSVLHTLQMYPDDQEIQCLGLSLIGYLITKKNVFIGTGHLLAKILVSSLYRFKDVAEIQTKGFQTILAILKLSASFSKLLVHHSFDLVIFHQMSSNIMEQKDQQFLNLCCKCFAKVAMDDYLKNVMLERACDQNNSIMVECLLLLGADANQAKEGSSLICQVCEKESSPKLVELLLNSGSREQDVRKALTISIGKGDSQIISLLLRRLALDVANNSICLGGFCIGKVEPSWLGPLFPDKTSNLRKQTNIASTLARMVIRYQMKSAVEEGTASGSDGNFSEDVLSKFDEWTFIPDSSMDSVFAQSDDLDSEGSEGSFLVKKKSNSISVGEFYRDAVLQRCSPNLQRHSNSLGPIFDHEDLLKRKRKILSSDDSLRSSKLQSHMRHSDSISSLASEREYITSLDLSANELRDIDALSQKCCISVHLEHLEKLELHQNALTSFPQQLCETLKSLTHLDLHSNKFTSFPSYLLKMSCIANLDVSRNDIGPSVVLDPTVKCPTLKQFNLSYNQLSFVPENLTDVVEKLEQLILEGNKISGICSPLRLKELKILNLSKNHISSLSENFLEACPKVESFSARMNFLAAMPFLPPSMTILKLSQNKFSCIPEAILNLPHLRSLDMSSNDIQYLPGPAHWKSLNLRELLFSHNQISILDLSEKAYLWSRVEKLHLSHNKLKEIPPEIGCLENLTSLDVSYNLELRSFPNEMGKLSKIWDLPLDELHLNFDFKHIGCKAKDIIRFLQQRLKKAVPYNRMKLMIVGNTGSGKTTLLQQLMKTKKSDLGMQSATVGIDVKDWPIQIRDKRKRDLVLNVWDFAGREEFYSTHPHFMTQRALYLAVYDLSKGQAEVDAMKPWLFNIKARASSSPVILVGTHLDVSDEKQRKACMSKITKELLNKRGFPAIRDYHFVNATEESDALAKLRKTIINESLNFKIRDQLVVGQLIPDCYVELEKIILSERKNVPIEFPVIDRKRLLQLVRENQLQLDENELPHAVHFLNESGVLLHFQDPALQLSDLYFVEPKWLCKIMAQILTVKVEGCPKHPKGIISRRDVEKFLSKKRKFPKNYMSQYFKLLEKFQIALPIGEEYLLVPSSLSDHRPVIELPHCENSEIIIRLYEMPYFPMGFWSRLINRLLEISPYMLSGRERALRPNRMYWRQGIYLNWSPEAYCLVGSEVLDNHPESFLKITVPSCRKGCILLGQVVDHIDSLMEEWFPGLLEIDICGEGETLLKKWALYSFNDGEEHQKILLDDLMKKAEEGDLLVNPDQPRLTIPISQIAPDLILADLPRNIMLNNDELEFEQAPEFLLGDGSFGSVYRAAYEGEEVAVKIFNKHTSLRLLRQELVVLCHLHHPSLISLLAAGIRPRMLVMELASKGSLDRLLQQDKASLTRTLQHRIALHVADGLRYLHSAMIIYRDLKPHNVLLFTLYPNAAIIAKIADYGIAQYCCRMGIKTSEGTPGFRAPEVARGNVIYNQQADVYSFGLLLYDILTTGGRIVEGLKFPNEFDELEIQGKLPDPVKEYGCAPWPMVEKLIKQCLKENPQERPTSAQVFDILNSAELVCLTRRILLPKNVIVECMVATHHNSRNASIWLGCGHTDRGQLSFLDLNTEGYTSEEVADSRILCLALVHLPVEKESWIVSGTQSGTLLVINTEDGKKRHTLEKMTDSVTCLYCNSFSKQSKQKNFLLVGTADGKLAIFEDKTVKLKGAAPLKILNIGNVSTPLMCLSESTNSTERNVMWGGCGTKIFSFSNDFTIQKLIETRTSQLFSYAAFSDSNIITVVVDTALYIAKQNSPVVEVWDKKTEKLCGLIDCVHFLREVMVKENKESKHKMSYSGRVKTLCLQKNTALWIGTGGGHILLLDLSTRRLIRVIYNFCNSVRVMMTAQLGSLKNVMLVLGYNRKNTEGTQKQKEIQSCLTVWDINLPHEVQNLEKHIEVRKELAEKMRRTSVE
row,Compound,IC50
1,"CCCNc1nc(Nc2ccc(P3(=O)CCN(C(C)=O)CC3)cc2OC)nc2[nH]cc(Cl)c12 [Compound 100, 1-(4-(4-((5-chloro-4-(propylamino)-7H-pyrrolo[2,3-d]pyrimidin-2-yl)amino)-3-methoxyphenyl)-4-oxido-1,4-azaphosphinan-1-yl)ethan-1-one]",10 to 100 nM
2,"CNc1nc(Nc2ccc(C(=O)N3CCOCC3)c3c2OCC3)nc2[nH]cc(Cl)c12 [Compound 76, (7-((5-chloro-4-(methylamino)-7H-pyrrolo[2,3-d]pyrimidin-2-yl)amino)-2,3-dihydrobenzofuran-4-yl)(morpholino)methanone]",< 10 nM
3,"CCNc1nc(Nc2ccc(P3(=O)CCN(C4CC4)CC3)cc2OC)nc2[nH]cc(Cl)c12 [Compound 84, 4-(4-((5-chloro-4-(ethylamino)-7H-pyrrolo[2,3-d]pyrimidin-2-yl)amino)-3-methoxyphenyl)-1-cyclopropyl-1,4-azaphosphinane 4-oxide]",10 to 100 nM
4,"COCCNc1nc(Nc2ccc(S(C)(=O)=O)cc2OC)nc2[nH]cc(Cl)c12 [Compound 23, 5-chloro-N2-(2-methoxy-4-(methylsulfonyl)phenyl)-N4-(2-methoxyethyl)-7H-pyrrolo[2,3-d]pyrimidine-2,4-diamine]",< 10 nM
5,"CCCNc1nc(Nc2ccc(S(C)(=O)=O)cc2OC)nc2[nH]cc(Cl)c12 [Compound 8, 5-chloro-N2-(2-methoxy-4-(methylsulfonyl)phenyl)-N4-propyl-7H-pyrrolo[2,3-d]pyrimidine-2,4-diamine]",10 to 100 nM
6,"COc1cc(S(C)(=O)=O)ccc1Nc1nc(NCC2CC2)c2c(Cl)c[nH]c2n1 [Compound 64, 5-chloro-N4-(cyclopropylmethyl)-N2-(2-methoxy-4-(methylsulfonyl)phenyl)-7H-pyrrolo[2,3-d]pyrimidine-2,4-diamine]",10 to 100 nM
7,"CCNc1nc(Nc2ccc(C(=O)N3CCOCC3)c3c2OCC3)nc2[nH]cc(Cl)c12 [Compound 101, (7-((5-chloro-4-(ethylamino)-7H-pyrrolo[2,3-d]pyrimidin-2-yl)amino)-2,3-dihydrobenzofuran-4-yl)(morpholino)methanone]",< 10 nM
8,"COc1cc(P2(=O)CCN(C3CC3)CC2)ccc1Nc1nc(NC2CCCCC2)c2c(Cl)c[nH]c2n1 [Compound 93, 4-(4-((5-chloro-4-(cyclohexylamino)-7H-pyrrolo[2,3-d]pyrimidin-2-yl)amino)-3-methoxyphenyl)-1-cyclopropyl-1,4-azaphosphinane 4-oxide]",100 to 1000 nM
9,CCNc1nc(Nc2ccc(P3(=O)CCN(C(C)=O)CC3)cc2OC)nc2[nH]cc(Cl)c12 [Compound 98],< 10 nM
10,"O=C(c1ccc(Nc2nc(NC3CCC3)c3c(Cl)c[nH]c3n2)c2c1OCCO2)N1CCOCC1 [Compound 30, (8-((5-chloro-4-(cyclobutylamino)-7H-pyrrolo[2,3-d]pyrimidin-2-yl)amino)-2,3-dihydrobenzo[b][1,4]dioxin-5-yl)(morpholino)methanone]",< 10 nM
11,"CCCNc1nc(Nc2ccc(C(=O)N3CCOCC3)c3c2OCCO3)nc2[nH]cc(Cl)c12 [Compound 20, (8-((5-chloro-4-(propylamino)-7H-pyrrolo[2,3-d]pyrimidin-2-yl)amino)-2,3-dihydrobenzo[b][1,4]dioxin-5-yl)(morpholino)methanone]",10 to 100 nM
12,"COc1cc(S(C)(=O)=O)ccc1Nc1nc(NC2CCOCC2)c2c(Cl)c[nH]c2n1 [Compound 63, 5-chloro-N2-(2-methoxy-4-(methylsulfonyl)phenyl)-N4-(tetrahydro-2H-pyran-4-yl)-7H-pyrrolo[2,3-d]pyrimidine-2,4-diamine]",10 to 100 nM
13,"CCCCNc1nc(Nc2ccc(S(=O)(=O)N3CCC(N4CCOCC4)CC3)cc2OC)nc2[nH]cc(Cl)c12 [Compound 72, N4-butyl-5-chloro-N2-(2-methoxy-4-((4-morpholinopiperidin-1-yl)sulfonyl)phenyl)-7H-pyrrolo[2,3-d]pyrimidine-2,4-diamine]",10 to 100 nM
